Experimental data taken from ChEMBL document CHEMBL1201862, “PubChem BioAssay data set” (2004).
Calls of active or inactive are those of the source.

Assays:
[1] = alpha-synuclein stem-loop luciferase translation blockers – H4 neuroglioma cells, luminescence, confirmation (AID 1988); assay type: functional, cell-based
[2] = target: T1, Nuclear receptor subfamily 0 group B member 1 (Homo sapiens, UniProt P51843); assay type: functional, cell-based;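 note: HEK293T cells transfected with SF-1 and DAX-1 plus StAR promoter luciferase reporter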
T1 sequence (P51843 whole entry): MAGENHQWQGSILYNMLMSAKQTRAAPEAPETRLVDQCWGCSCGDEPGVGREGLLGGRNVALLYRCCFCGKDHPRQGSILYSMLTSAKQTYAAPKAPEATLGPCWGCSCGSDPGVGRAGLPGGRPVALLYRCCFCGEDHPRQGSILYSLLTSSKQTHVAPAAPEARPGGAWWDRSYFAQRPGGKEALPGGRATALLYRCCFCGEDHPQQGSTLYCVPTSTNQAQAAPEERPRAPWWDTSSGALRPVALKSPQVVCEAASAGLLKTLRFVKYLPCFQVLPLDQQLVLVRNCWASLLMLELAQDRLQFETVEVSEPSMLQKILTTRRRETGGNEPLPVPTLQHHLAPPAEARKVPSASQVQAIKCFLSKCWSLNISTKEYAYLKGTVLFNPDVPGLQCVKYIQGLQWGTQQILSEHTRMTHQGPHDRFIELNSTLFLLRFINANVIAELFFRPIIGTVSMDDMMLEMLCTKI

[3] = luciferase reporter signal suppression in cells – H4 neuroglioma cells, luminescence, dose response (AID 1990); assay type: functional, cell-based
[4] = Luminescence Cell-Based Dose Response HTS to Identify Inhibitors of 5'UTR Stem-Loop Driven Prion Protein mRNA Translation in H4 Neuroglioblastoma Cells. [Related pubchem assays: 1827 (Project Summary), 1813 (Primary HTS)]; assay type: functional
cells [5] = assay type: functional, cell-based
[6] = reduced cellular PGC1a acetyl-lysine signal – cell-based, cherry-picked samples, dose response (AID 720514); assay type: functional;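 note: potency may reflect raised or lowered acetylation signal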
[7] = cytotoxicity in MITF-independent A375 cells – cell-based, CellTiter-Glo luminescence, dry powder, set 4, counter-screen for MITF inhibitor project, dose response (AID 624364); assay type: functional; details: A-375;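 note: A375 melanoma cells are MITF independent so this is a counter screen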
[8] = viability loss in MITF-independent A375 cells – cell-based, CellTiter-Glo luminescence, dry powder, set 2, counter-screen for MITF inhibitor project, dose response (AID 624489); assay type: functional; details: A-375;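 note: actives are compounds lowering A375 viability meaning general cytotoxicity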
cells [9] = assay type: functional, cell-based; details: HEK-CNG
Galanin receptor type 3 = Galanin receptor type 3 (Homo sapiens, UniProt O60755); assay: Fluorescence-based cell-based primary high throughput dose response assay to identify antagonists of the Galanin Receptor 3 (GalR3).; assay type: functional
Caspase-6 = Caspase-6 (Homo sapiens, UniProt P55212); assay: inhibition of CASP6 peptide cleavage – biochemical, VEID-R110 fluorescence, cherry-pick, dose response (AID 720632)
Major prion protein = Major prion protein (Homo sapiens, UniProt P04156); assay type: functional, cell-based
cells [10] = assay: cells
[11] = viability of HCT116 lacking mutant beta-catenin – cell-based, human colon tumor, dose response (AID 1045); assay type: functional;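 note: HCT116 colon tumor cells with beta catenin knocked out; cells exposed to compound for 60 hours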
[12] = target: T2, Microphthalmia-associated transcription factor (Homo sapiens, UniProt O75030); assay: reducers of TRPM1 reporter luminescence, concentration series – cell-based, SK-MEL-5, cherry-picked, set 3, MITF inhibitor project, dose response (AID 493073); assay type: functional;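 note: SK-MEL-5 melanoma cells with luciferase driven by the MITF target TRPM1 promoter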
T2 sequence (O75030 whole entry): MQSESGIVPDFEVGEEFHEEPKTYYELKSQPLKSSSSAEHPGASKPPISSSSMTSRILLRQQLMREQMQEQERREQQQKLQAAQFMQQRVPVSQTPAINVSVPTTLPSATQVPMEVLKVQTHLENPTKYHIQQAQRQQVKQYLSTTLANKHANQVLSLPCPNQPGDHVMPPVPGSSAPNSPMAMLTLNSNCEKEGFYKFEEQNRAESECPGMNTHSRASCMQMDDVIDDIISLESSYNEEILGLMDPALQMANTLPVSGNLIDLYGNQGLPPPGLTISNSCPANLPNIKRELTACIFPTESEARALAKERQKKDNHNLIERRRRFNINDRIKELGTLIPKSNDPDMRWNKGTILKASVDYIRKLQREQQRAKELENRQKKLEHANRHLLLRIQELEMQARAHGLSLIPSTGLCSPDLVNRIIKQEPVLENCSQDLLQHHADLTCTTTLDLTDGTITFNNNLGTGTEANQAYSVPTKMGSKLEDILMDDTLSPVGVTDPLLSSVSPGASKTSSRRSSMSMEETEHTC

INS1 = assay: INS-1E survival protection against cytokine death – cell-based, luminescence, retest, dose response (AID 449756); assay type: functional; details: Rattus norvegicus;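 note: cell death triggered by IL-1 beta plus TNF-alpha plus IFN-gamma mixture; protective hits raise ATP signal compared with cytokine alone wells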
[13] = viability of PTEN-deleted HCT116 cells – cell-based, HCT116 PTEN knockout, dose response (AID 1047); assay type: functional;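 note: HCT116 colon tumor cells with PTEN knocked out; cells exposed to compound for 60 hours before readout; potency for loss of cell viability measured by luminescence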
[14] = potency of ADAM10 substrate cleavage blockers – biochemical, QFRET, dose response (AID 743254);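 note: ADAM10 enzyme with the DM2 quenched FRET peptide as substrate; EDANS fluorescence gain as the protease cuts the substrate; inhibitor potency against ADAM10 proteolytic activity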
[15] = viability loss of HPDE-C7K cells – cell-based, fluorescence, HTS, primary screen (AID 431); assay type: functional; details: Homo sapiens
[16] = target: Disintegrin and metalloproteinase domain-containing protein 17 (Homo sapiens, UniProt P78536); assay: inhibition of ADAM17 substrate cleavage – biochemical, quenched FRET substrate, counter-screen for ADAM10 exosite inhibitor project, dose response (AID 743253)
[17] = HPDE-C7 pancreatic duct cell viability loss – fluorescence, HTS (AID 430); assay type: functional, cell-based; details: Homo sapiens
[18] = viability loss in HepG2 liver cells – cell-based, ATP luminescence, cherry-pick, set 6, cytotoxicity control, dose response (AID 1053125); assay type: functional
cells [19] = details: HEK293

SMILES: CN1CCN(c2ccc(NC(=O)c3ccc4ccccc4c3)cc2)CC1
- EC50 [1]: 9.94 µM (inconclusive)
- IC50 [2]: > 67.6 µM (inactive)
- EC50 [3]: 7.8 µM (inconclusive)
- EC50 [4]: 8.96 µM (inconclusive)
- IC50 (cells [5]): > 67.6 µM (inactive)

SMILES: CCN1C(C#N)=C(C#N)N=C(C)CC1(C)C
- AC50 [6]: 30.5 µM (active)

SMILES: O=C1C(NCCCN2CCOCC2)=C(Nc2ccccc2)C(=O)c2ccccc21
- AC50 [7]: > 70 µM (inactive)
- AC50 [8]: > 70 µM (inactive)

SMILES: Fc1ccc(N=C(S)NNc2ncc(C(F)(F)F)cc2Cl)c(F)c1
- EC50 (cells [9]): > 29.9 µM (inactive)

SMILES: CCOc1nc(C#N)nc(N2CCCCC2)n1
- IC50 (Galanin receptor type 3): 1.09 µM (active)
- EC50 (cells [9]): > 29.9 µM (inactive)

SMILES: Cc1cccc(NC2=C(NCCO)C(=O)c3ccccc3C2=O)c1
- AC50 (Caspase-6): 9.36 µM (active)

SMILES: COc1ccc(-c2nc3ccc(Br)cn3c2Cc2cccc(F)c2)cc1OC
- IC50 (Major prion protein): 6.96 µM (active)
- IC50 (cells [10]): > 138 µM (inactive)

SMILES: CCN1c2ccccc2NC2N=C(OC)C(c3ccccc3)C21 (stereo unspecified)
- EC50 [11]: 7.49 µM (active)
- AC50 [7]: 50.4 µM (active)
- AC50 [12]: 7.51 µM (active)
- AC50 [8]: 29.7 µM (active)
- AC50 (INS1): 1.26 µM (active)
- EC50 [13]: 8.12 µM (active)

SMILES: C=C(C)COc1ccc(-c2n[nH]cc2-c2ccccc2OC)c(O)c1
- IC50 [14]: 10.6 µM (inactive)
- EC50 [15]: 11.3 µM (active)
- IC50 [16]: > 69.5 µM (inactive)
- EC50 [17]: 13.7 µM (active)

SMILES: S=C(NCC1CCCO1)N1CCN(Cc2ccccc2Cl)CC1 (stereo unspecified)
- AC50 [18]: 38.4 µM (active)
- AC50 (cells [19]): > 24 µM (inactive)
